Results published in article PMC10485906, “Development of a Dihydroquinoline–Pyrazoline GluN2C/2D-Selective Negative Allosteric Modulator of the N-Methyl-D-aspartate Receptor” (ACS Chemical Neuroscience, 2023).
“And” between values parts separate entries of the source, which are not always exact repeats. Identical values can stand only once. “Also recorded” adds a separate entry of the source. Like-named read-outs stand apart in the source and are kept apart here. Values belong to the compound of their own block, whether it stands above or below them.

How the values were obtained:
[1] = Mouse plasma and brain pharmacokinetics, IV administration; assay type: in vivo; details: 5 mg/kg IV; for concentration at 0.25 h / concentration at 1 h / concentration at 3 h: male, C57BL/6, mouse, intravenous, 5 mg/kg
Protocol: IACUC-approved protocols and animal welfare regulations outlined in the “Guide for the Care and Use of Laboratory Animals” were both followed during the pharmacokinetic evaluation of all compounds. In vivo analysis was performed by Pharmaron (IP administration, Irvine, CA) and Sai Life (IV administration, Hinjewadi Pune, Pune, India).
Nine male C57BL/6 mice were administered intravenously (IV) with solution formulation of prodrug at 5 mg/kg dose (5 mL/kg) in 5% […], 5% Solutol HS-15, and 90% saline. Blood samples (∼60 μL) were collected under light isoflurane anesthesia from a set of three mice at 0.25, 1, and 3 h. Plasma was harvested by centrifugation of blood and stored at −70 ± 10 °C until analysis. Immediately after the collection of blood, brain samples were collected from each mouse at respective time points. Brain samples were homogenized using ice-cold phosphate-buffered saline (pH 7.4), and homogenates were stored below −70 ± 10 °C until analysis. The total homogenate volume was 3 times that of the brain weight. The plasma and brain concentration–time data of compounds 2i were used for the pharmacokinetic analysis. Plasma and brain samples were quantified by the fit-for-purpose LC-MS/MS method (LLOQ: 2.06 ng/mL for plasma and 5.16 ng/mL for brain).

GluN1-4a/GluN3B = GluN1-4a/GluN3B (Rattus norvegicus, UniProt P35439+Q8VHN2); experiment: Off-target, oocytes, GluN1-4a/GluN3B; assay type: cell-based; details: 1 µM compound; 100 µM glycine
Protocol: (§1) Analysis of Off-target Actions
(§2) Compound (S)-(-)-2i was tested at 1 µM for actions at glycine-activated GluN1/GluN3A (human GluN1-F484A,T518L/GluN3A referred to a GluN1-FA,TL/GluN3A) and rat GluN1-4a/GluN3B in the presence of 0.5 µM CGP-78608. cRNA injection ratios for GluN1/GluN3 were 1:2. Compound (S)-(-)- 2i was also tested for actions at AMPA (rat GluA1, rat GluA2, human GluA3-L531Y), kainate (rat GluK2), nicotinic acetylcholine (rat α7 and α4β2, cRNA ratio 1:1), GABAA (rat α1β2γ2S, cRNA ratio 1:1:1), GABAC (rat ρ1), glycine (rat α1), and purinergic (human P2X) receptors expressed in Xenopus oocytes. cRNA encoding the receptor subunits was synthesized from linear template cDNA using the mMessage mMachine kit (Ambion). Oocytes were injected with 1-5 ng cRNA in a 50 nL volume and incubated in Barth's solution at 15°C for 2-5 days prior to recording. GluK2-expressing oocyte were incubated in 1 mg/ml (10 µM) concanavalin-A for 10 min prior to recording. The cDNAs encoding GABAC and glycine subunits were provided by Dr. D. Weiss (University of Texas Health Science Center at San Antonio). cDNAs encoding nicotinic acetylcholine receptor subunits were provided by Drs. […]
(§3) GABA. […] Responses in presence of test compound were expressed as a percent of control. […]

α1-Glycine = biological target: T1, α1-Glycine (Rattus norvegicus, UniProt P07727); experiment: Off-target, oocytes, glycine receptor; assay type: cell-based; details: 1 µM compound; 100 µM glycine
T1 construct: expressed in transfected cells; host or cells: Xenopus oocytes (cRNA injection)
Protocol: as §1, §2, §3

[2] = test system: AMPA, kainate, GluN1/GluN3, GABA, glycine, nicotinic, purinergic P2X receptors; experiment: Off-target actions, summary in words; assay type: cell-based; details: 1 μM
Protocol: By contrast, the other enantiomer (R)-(+)-2i had lower potency and produced shallow, incomplete inhibition (Figure S11).
as §1, §2, §3

Chain of GluN1-4a/GluN3B (Q8VHN2 25-1002, other chains not shown): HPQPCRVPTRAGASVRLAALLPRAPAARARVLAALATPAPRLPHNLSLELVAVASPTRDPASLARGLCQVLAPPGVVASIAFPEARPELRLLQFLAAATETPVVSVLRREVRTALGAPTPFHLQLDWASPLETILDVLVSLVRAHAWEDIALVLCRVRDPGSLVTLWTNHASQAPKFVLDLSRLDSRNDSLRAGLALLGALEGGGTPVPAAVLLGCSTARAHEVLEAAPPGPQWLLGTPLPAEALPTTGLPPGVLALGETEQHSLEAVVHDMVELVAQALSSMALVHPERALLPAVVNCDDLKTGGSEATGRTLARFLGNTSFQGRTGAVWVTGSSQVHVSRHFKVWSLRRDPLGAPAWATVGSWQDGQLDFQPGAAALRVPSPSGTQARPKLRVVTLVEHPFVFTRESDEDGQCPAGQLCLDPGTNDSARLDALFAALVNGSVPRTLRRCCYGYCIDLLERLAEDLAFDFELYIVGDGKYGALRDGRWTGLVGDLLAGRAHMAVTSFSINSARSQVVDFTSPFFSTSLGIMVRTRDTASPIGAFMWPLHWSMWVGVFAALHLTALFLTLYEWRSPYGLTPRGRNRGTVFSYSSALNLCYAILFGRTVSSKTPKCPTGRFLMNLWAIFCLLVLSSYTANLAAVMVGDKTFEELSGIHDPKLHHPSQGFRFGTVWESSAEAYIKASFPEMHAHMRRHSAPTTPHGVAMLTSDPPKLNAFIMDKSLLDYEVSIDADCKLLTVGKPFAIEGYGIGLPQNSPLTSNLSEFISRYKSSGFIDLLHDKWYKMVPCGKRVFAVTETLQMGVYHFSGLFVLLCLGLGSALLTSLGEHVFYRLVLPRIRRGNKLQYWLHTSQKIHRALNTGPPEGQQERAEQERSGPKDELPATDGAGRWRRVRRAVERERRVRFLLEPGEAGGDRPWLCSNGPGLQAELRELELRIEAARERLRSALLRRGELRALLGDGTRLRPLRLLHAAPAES
T1 sequence (P07727 29-457): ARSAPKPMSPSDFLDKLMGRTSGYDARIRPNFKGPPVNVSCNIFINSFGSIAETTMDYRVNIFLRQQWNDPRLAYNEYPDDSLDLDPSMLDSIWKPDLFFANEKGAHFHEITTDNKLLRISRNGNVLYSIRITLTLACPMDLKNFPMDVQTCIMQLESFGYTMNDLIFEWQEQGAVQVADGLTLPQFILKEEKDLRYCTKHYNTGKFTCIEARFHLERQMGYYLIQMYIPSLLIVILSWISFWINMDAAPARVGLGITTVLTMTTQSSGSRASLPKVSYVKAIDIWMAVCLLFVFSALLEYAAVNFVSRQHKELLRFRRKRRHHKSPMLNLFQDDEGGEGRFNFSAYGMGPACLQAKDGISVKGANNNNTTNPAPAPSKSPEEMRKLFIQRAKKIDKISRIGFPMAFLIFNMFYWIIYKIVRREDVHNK

drop of plasma levels at 1 h [1]: ~10 fold | brain calculated concentration, individual (Group 1-3) ([1]; 0.25 h): 17.9 ng/g and 13.1 ng/g | brain calculated concentration, Mean ([1]; 0.25 h (15 min)): 14 ng/g | plasma concentration, individual (Group 1-3) ([1]; 0.25 hr): 585 ng/mL and 766 ng/mL | brain calculated concentration, individual (Group 1-3) ([1]; 1 h): BLQ and 6.18 ng/g | plasma concentration, individual (Group 1-3) ([1]; 1 hr): 41.2 ng/mL and 101 ng/mL and 68.7 ng/mL | brain calculated concentration, individual (Group 1-3) ([1]; 3 h): BLQ | brain levels at 3 h ([1]; 3 h): BLQ | plasma concentration, individual (Group 1-3) ([1]; 3 hr): 5.97 ng/mL and 10.2 ng/mL | concentration at 0.25 h ([1]; brain, 0.25 h (15 min), read-out: brain calculated concentration, Mean): 13.9 ng/g | concentration at 0.25 h ([1]; brain, 0.25 h, read-out: brain calculated concentration, individual (Group 1-3)): 10.8 ng/g | concentration at 1 h ([1]; brain, 1 h, BLQ assumed to be 0.0, read-out: brain calculated concentration, Mean): 4.13 ng/g | concentration at 1 h ([1]; brain, 1 h, read-out: brain calculated concentration, individual (Group 1-3)): 6.21 ng/g | concentration at 0.25 h ([1]; plasma, 0.25 hr (15 min), read-out: plasma concentration, Mean): 642 ng/mL | concentration at 0.25 h ([1]; plasma, 0.25 hr, read-out: plasma concentration, individual (Group 1-3)): 575 ng/mL | concentration at 1 h ([1]; plasma, 1 hr, read-out: plasma concentration, Mean): 70.4 ng/mL | concentration at 3 h ([1]; plasma, 3 hr, read-out: plasma concentration, Mean): 7.64 ng/mL | concentration at 3 h ([1]; plasma, 3 hr, read-out: plasma concentration, individual (Group 1-3)): 6.78 ng/mL
SMILES: O=C(O)CC(F)(F)C(=O)N1N=C(c2c(-c3ccc(Cl)cc3)c3ccccc3[nH]c2=O)CC1c1ccc(Cl)cc1 (stereo not drawn) [2i]

% control GluN1-4a/GluN3B (GluN1-4a/GluN3B): 97 ± 1.0% | % control α1-Glycine (α1-Glycine): 103 ± 2.4% | off-target actions [2]: no effects; also recorded: no activity
SMILES: O=C(O)CC(F)(F)C(=O)N1N=C(c2c(-c3ccc(Cl)cc3)c3ccccc3[nH]c2=O)C[C@H]1c1ccc(Cl)cc1 [(S)-(−)-2i]
